Test results taken from patent US10294202B2, “Pyrrolidinones as herbicides” (FMC Corporation, priority 2013, dated 2019).

Experiments:
ragweed = assay: Test A pre-/postemergence herbicide test; type: in vivo, Ambrosia elatior
Procedure, shortened: (§1)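 Visual injury ratings, 0 = no effect, 100 = complete control, taken ~10 days after treatment against untreated greenhouse controls. Preemergence: directed soil spray onto seeded loam/sand pots. Postemergence: spray onto plants at one- to two-leaf stage, 2–10 cm tall.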

ryegrass, Italian = assay: Test A pre-/postemergence herbicide test; type: in vivo, Lolium multiflorum
Procedure, shortened: as §1

blackgrass = assay: Test A postemergence herbicide test; type: in vivo, Alopecurus myosuroides
Procedure, shortened: (§2)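 Young potted plants in a loam–sand mix, one- to two-leaf stage and 2–10 cm tall, receive the test chemical postemergence and stay in a greenhouse for approximately 10 days. Injury is then judged by eye against untreated plants, scored 0 (none) to 100 (complete control).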

galium = assay: Test A postemergence herbicide test; type: in vivo, Galium aparine
Procedure, shortened: as §2

rice = assay: Test C flooded paddy test; type: in vivo, Oryza sativa; conditions: Flood
Procedure, shortened: (§3)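 Visual ratings from 0, no effect, to 100, complete control, were made against untreated controls after 13–15 greenhouse days. Compounds had gone straight into paddy water 3 cm above the soil, kept at that depth, on 2-leaf-stage plants.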

sedge, umbrella = assay: Test C flooded paddy test; type: in vivo, Cyperus difformis; conditions: Flood
Procedure, shortened: as §3

ducksalad = assay: Test C flooded paddy test; type: in vivo, Heteranthera limosa; conditions: Flood
Procedure, shortened: as §3

barnyardgrass = assay: Test C flooded paddy test; type: in vivo, Echinochloa crus-galli; conditions: Flood
Procedure, shortened: as §3

[1] = 125 g ai/ha, visual rating, 0 to 100 scale, 0 no effect, 100 complete control, approximately 10 days, preemergence
[2] = Postemergence, 125 g ai/ha, 0 to 100 scale, 0 is no effect, 100 is complete control
[3] = preemergence, 500 g ai/ha, 0 to 100 scale, 0 is no effect and 100 is complete control
[4] = 125 g ai/ha, 0 to 100 scale, 0 is no effect, 100 is complete control
[5] = 125 g ai/ha, scale of 0 to 100 where 0 is no effect and 100 is complete control, 13 to 15 days
[6] = 250 g ai/ha, scale of 0 to 100 where 0 is no effect and 100 is complete control, 13 to 15 days
[7] = 31 g ai/ha, scale of 0 to 100 where 0 is no effect and 100 is complete control, 13 to 15 days
[8] = 62 g ai/ha, scale of 0 to 100 where 0 is no effect and 100 is complete control, 13 to 15 days
[9] = Postemergence, 125 g ai/ha, 0 to 100 scale, 0 no effect, 100 complete control
[10] = preemergence, 500 g ai/ha, 0 to 100 scale
[11] = 125 g ai/ha, 0 to 100 scale, 0 no effect, 100 complete control
[12] = 500 g ai/ha, 0 to 100 scale (0 no effect, 100 complete control)
[13] = Postemergence, 125 g ai/ha, visual rating on 0 to 100 scale (0 no effect, 100 complete control), approx. 10 days
[14] = Postemergence, 500 g ai/ha, 0 to 100 scale (0 no effect, 100 complete control)
[15] = Preemergence, 125 g ai/ha, 0 to 100 scale where 0 is no effect and 100 is complete control
[16] = Preemergence, 500 g ai/ha, visual rating on 0 to 100 scale (0 no effect, 100 complete control)
[17] = 125 g ai/ha, visual rating on 0 to 100 scale (0 no effect, 100 complete control), approx. 10 days

| SMILES | Plant response rating, Ragweed (ragweed; [1]) | Plant response rating, Ragweed (ragweed; [2]) | Ragweed plant response rating (0 to 100 scale, 0 is no effect, 100 is complete control) (ragweed; Postemergence, 500 g ai/ha) | Plant response rating, Ragweed (ragweed; [3]) | Plant response rating, Ryegrass, Italian (ryegrass, Italian; [1]) | Plant response rating, Ryegrass, Italian (ryegrass, Italian; [2]) | Ryegrass, Italian plant response rating (0 to 100 scale, 0 is no effect, 100 is complete control) (ryegrass, Italian; Postemergence, 500 g ai/ha) | Plant response rating, Ryegrass, Italian (ryegrass, Italian; [3]) | Plant response rating, Blackgrass (blackgrass; [4]) | Blackgrass plant response rating (0 to 100 scale, 0 is no effect, 100 is complete control) (blackgrass; 500 g ai/ha) | Plant response rating, Galium (galium; [4]) | Galium plant response rating (0 to 100 scale, 0 is no effect, 100 is complete control) (galium; 500 g ai/ha) | Plant response rating, Rice (rice; [5]) | Plant response rating, Rice (rice; [6]) | Plant response rating, Sedge, Umbrella (sedge, umbrella; [5]) | Plant response rating, Sedge, Umbrella (sedge, umbrella; [6]) | Plant response rating, Ducksalad (ducksalad; [5]) | Plant response rating, Ducksalad (ducksalad; [6]) | Plant response rating, Barnyardgrass (barnyardgrass; [5]) | Plant response rating, Barnyardgrass (barnyardgrass; [6]) | also measured |
| --- | --- | --- | --- | --- | --- | --- | --- | --- | --- | --- | --- | --- | --- | --- | --- | --- | --- | --- | --- | --- | --- |
| O=C1NC[C@H](c2cccc(C(F)(F)F)c2)[C@H]1C(=O)Nc1cccc(F)c1F [Compound 206] | 60 | 0 | 50 | 70 | 40 | 50 | 60 | 80 | 70 | 80 | 70 | 80 | 0 | 0 | 0 | 0 | 90 | 100 | 35 | 60 | Plant response rating, Rice (rice; 500 g ai/ha, scale 0 to 100): 15; Plant response rating, Rice (rice; 1000 g ai/ha, scale 0 to 100): 15; Plant response rating, Sedge, Umbrella (sedge, umbrella; 500 g ai/ha, scale 0 to 100): 0; Plant response rating, Sedge, Umbrella (sedge, umbrella; 1000 g ai/ha, scale 0 to 100): 0; Plant response rating, Ducksalad (ducksalad; 500 g ai/ha, scale 0 to 100): 100; Plant response rating, Ducksalad (ducksalad; 1000 g ai/ha, scale 0 to 100): 100; Plant response rating, Barnyardgrass (barnyardgrass; 500 g ai/ha, scale 0 to 100): 75; Plant response rating, Barnyardgrass (barnyardgrass; 1000 g ai/ha, scale 0 to 100): 85 |
| O=C1NCC(c2cccc(OC(F)F)c2)C1C(=O)Nc1cccc(F)c1F (stereo not drawn) [Compound 224] | 90 | 40 | 60 | 90 | 60 | 50 | 60 | 70 | 60 | 70 | 70 | 70 | 0 | 20 | 0 | 0 | 80 | 100 | 40 | 60 | Plant response rating, Rice (rice; [7]): 0; Plant response rating, Rice (rice; [8]): 0; Plant response rating, Sedge, Umbrella (sedge, umbrella; [7]): 0; Plant response rating, Sedge, Umbrella (sedge, umbrella; [8]): 0; Plant response rating, Ducksalad (ducksalad; [7]): 0; Plant response rating, Ducksalad (ducksalad; [8]): 40; Plant response rating, Barnyardgrass (barnyardgrass; [7]): 0; Plant response rating, Barnyardgrass (barnyardgrass; [8]): 20 |
| O=C1NCC(c2ccc(F)cc2)C1C(=O)Nc1ccc(F)c(F)c1F (racemic) [Compound 120] | 60 |  | 50 |  | 30 |  | 50 |  |  |  |  | 60 | 0 |  | 0 |  | 100 |  | 50 |  | Plant response rating, Ragweed (ragweed; [9]): 30; Plant response rating, Ragweed (ragweed; [10]): 80; Plant response rating, Ryegrass, Italian (ryegrass, Italian; [9]): 30; Plant response rating, Ryegrass, Italian (ryegrass, Italian; [10]): 50; Plant response rating, Blackgrass (blackgrass; [11]): 40; Plant response rating, Blackgrass (blackgrass; [12]): 50; Plant response rating, Galium (galium; [11]): 50; Plant response rating, Rice (rice; [8]): 0; Plant response rating, Rice (rice; 250 g ai/ha, scale 0 to 100): 0; Plant response rating, Rice (rice; 500 g ai/ha, scale 0 to 100): 0; Plant response rating, Sedge, Umbrella (sedge, umbrella; [8]): 0; Plant response rating, Sedge, Umbrella (sedge, umbrella; 250 g ai/ha, scale 0 to 100): 0; Plant response rating, Sedge, Umbrella (sedge, umbrella; 500 g ai/ha, scale 0 to 100): 0; Plant response rating, Ducksalad (ducksalad; [8]): 100; Plant response rating, Ducksalad (ducksalad; 250 g ai/ha, scale 0 to 100): 100; Plant response rating, Ducksalad (ducksalad; 500 g ai/ha, scale 0 to 100): 100; Plant response rating, Barnyardgrass (barnyardgrass; [8]): 40; Plant response rating, Barnyardgrass (barnyardgrass; 250 g ai/ha, scale 0 to 100): 60; Plant response rating, Barnyardgrass (barnyardgrass; 500 g ai/ha, scale 0 to 100): 75 |
| O=C1NC[C@H](c2cccc(C(F)(F)F)c2)[C@H]1C(=O)Nc1ccccc1F [Compound 204, (3R,4S)—N-(2-fluorophenyl)-2-oxo-4-[3-(trifluoromethyl)phenyl]-3-pyrrolidinecarboxamide] | 0 | 0 | 0 | 80 | 20 | 30 | 50 | 50 | 70 | 80 | 50 | 60 | 0 | 0 | 0 | 0 | 50 | 95 | 50 | 70 | Plant response rating, Rice (rice; 500 g ai/ha, scale 0 to 100): 0; Plant response rating, Rice (rice; 1000 g ai/ha, scale 0 to 100): 10; Plant response rating, Sedge, Umbrella (sedge, umbrella; 500 g ai/ha, scale 0 to 100): 0; Plant response rating, Sedge, Umbrella (sedge, umbrella; 1000 g ai/ha, scale 0 to 100): 0; Plant response rating, Ducksalad (ducksalad; 500 g ai/ha, scale 0 to 100): 100; Plant response rating, Ducksalad (ducksalad; 1000 g ai/ha, scale 0 to 100): 100; Plant response rating, Barnyardgrass (barnyardgrass; 500 g ai/ha, scale 0 to 100): 75; Plant response rating, Barnyardgrass (barnyardgrass; 1000 g ai/ha, scale 0 to 100): 80 |
| O=C1NCC(c2cccc(OC(F)F)c2)C1C(=O)Nc1ccccc1F (stereo not drawn) [Compound 323] |  |  |  |  |  |  |  |  |  |  |  |  | 0 | 30 | 0 | 0 | 90 | 100 | 50 | 65 | Plant response rating, Ragweed (ragweed; [13]): 0; Plant response rating, Ragweed (ragweed; [14]): 20; Plant response rating, Ragweed (ragweed; [15]): 20; Ragweed plant response rating (ragweed; [16]): 80; Plant response rating, Ryegrass, Italian (ryegrass, Italian; [13]): 30; Plant response rating, Ryegrass, Italian (ryegrass, Italian; [14]): 30; Plant response rating, Ryegrass, Italian (ryegrass, Italian; [15]): 20; Ryegrass, Italian plant response rating (ryegrass, Italian; [16]): 30; Plant response rating, Blackgrass (blackgrass; [17]): 40; Plant response rating, Blackgrass (blackgrass; [12]): 60; Plant response rating, Galium (galium; [17]): 40; Plant response rating, Galium (galium; [12]): 60; Plant response rating, Rice (rice; [7]): 0; Plant response rating, Rice (rice; [8]): 0; Plant response rating, Sedge, Umbrella (sedge, umbrella; [7]): 0; Plant response rating, Sedge, Umbrella (sedge, umbrella; [8]): 0; Plant response rating, Ducksalad (ducksalad; [7]): 50; Plant response rating, Ducksalad (ducksalad; [8]): 75; Plant response rating, Barnyardgrass (barnyardgrass; [7]): 25; Plant response rating, Barnyardgrass (barnyardgrass; [8]): 45 |
| O=C1NCC(c2cccc(C(F)F)c2)C1C(=O)Nc1ccccc1F (racemic) [Compound 210] | 0 | 0 | 0 | 30 | 0 | 0 | 50 | 50 | 30 | 60 | 30 | 60 | 0 | 0 | 0 | 0 | 0 | 80 | 0 | 45 | Plant response rating, Rice (rice; 500 g ai/ha, scale 0 to 100): 0; Plant response rating, Rice (rice; 1000 g ai/ha, scale 0 to 100): 0; Plant response rating, Sedge, Umbrella (sedge, umbrella; 500 g ai/ha, scale 0 to 100): 0; Plant response rating, Sedge, Umbrella (sedge, umbrella; 1000 g ai/ha, scale 0 to 100): 0; Plant response rating, Ducksalad (ducksalad; 500 g ai/ha, scale 0 to 100): 100; Plant response rating, Ducksalad (ducksalad; 1000 g ai/ha, scale 0 to 100): 100; Plant response rating, Barnyardgrass (barnyardgrass; 500 g ai/ha, scale 0 to 100): 70; Plant response rating, Barnyardgrass (barnyardgrass; 1000 g ai/ha, scale 0 to 100): 75 |
